# Test results published in article PMC5423977, “Safety, pharmacokinetics, and pharmacodynamics of BMS-986142, a novel reversible BTK inhibitor, in healthy participants” (European Journal of Clinical Pharmacology, 2017).
# Assay: 12-lead ECG, baseline-corrected QTcF
# Assay type: in vivo, human
# Conditions: for Maximum change from baseline in QTcF interval >30-≤60 msec / Maximum change from baseline in QTcF interval >60 msec / Maximum change from baseline in QTcF interval ≤30 msec: n = 6
# Experimental: Participants were monitored for adverse events (AEs) throughout the study. Clinical laboratory tests, vital sign measurements, 12-lead ECGs, and physical examinations were performed at selected times throughout the dosing interval. Safety data was recorded in the participants’ medical records, and assessments were performed for emergent AEs or serious AEs (SAEs). For all AEs, causal relationship to the study drug was determined by an investigator. QT signals obtained from 12-lead ECGs were corrected by heart rate using Fridericia’s formula (QTcF). Baseline-corrected QTcF (∆QTcF) were evaluated to determine QT elongation.
smiles,measurement,setting,value
"Cc1c(-c2c(F)cc(C(N)=O)c3[nH]c4c(c23)CC[C@H](C(C)(C)O)C4)cccc1-n1c(=O)c2cccc(F)c2n(C)c1=O [BMS-986142, 6-fluoro-5-(R)-(3-(S)-(8-fluoro-1-methyl-2,4-dioxo-1,2-dihydroquinazolin-3(4H)-yl)-2-methylphenyl)-2-(S)-(2-hydroxypropan-2-yl)-2,3,4,9-tetrahydro-1H-carbazole-8-carboxamide]",Maximum change from baseline in QTcF interval >30-≤60 msec,MAD 25 mg,0 N (%)
same,Maximum change from baseline in QTcF interval >60 msec,MAD 25 mg,0 N (%)
same,Maximum change from baseline in QTcF interval ≤30 msec,MAD 25 mg,6 (100) N (%)
same,Maximum change from baseline in QTcF interval >30-≤60 msec,MAD 75 mg,0 N (%)
same,Maximum change from baseline in QTcF interval >60 msec,MAD 75 mg,0 N (%)
same,Maximum change from baseline in QTcF interval ≤30 msec,MAD 75 mg,6 (100) N (%)
same,Maximum change from baseline in QTcF interval >30-≤60 msec,MAD 200 mg,0 N (%)
same,Maximum change from baseline in QTcF interval >60 msec,MAD 200 mg,0 N (%)
same,Maximum change from baseline in QTcF interval ≤30 msec,MAD 200 mg,6 (100) N (%)
same,Maximum change from baseline in QTcF interval >30-≤60 msec,MAD 350 mg,0 N (%)
same,Maximum change from baseline in QTcF interval >60 msec,MAD 350 mg,0 N (%)
same,Maximum change from baseline in QTcF interval ≤30 msec,MAD 350 mg,6 (100) N (%)
same,Maximum change from baseline in QTcF interval >30-≤60 msec,SAD 5 mg,0 N (%)
same,Maximum change from baseline in QTcF interval >60 msec,SAD 5 mg,0 N (%)
same,Maximum change from baseline in QTcF interval ≤30 msec,SAD 5 mg,6 (100) N (%)
same,Maximum change from baseline in QTcF interval >30-≤60 msec,SAD 15 mg,0 N (%)
same,Maximum change from baseline in QTcF interval >60 msec,SAD 15 mg,0 N (%)
same,Maximum change from baseline in QTcF interval ≤30 msec,SAD 15 mg,6 (100) N (%)
same,Maximum change from baseline in QTcF interval >30-≤60 msec,SAD 50 mg,0 N (%)
same,Maximum change from baseline in QTcF interval >60 msec,SAD 50 mg,0 N (%)
same,Maximum change from baseline in QTcF interval ≤30 msec,SAD 50 mg,6 (100) N (%)
same,Maximum change from baseline in QTcF interval >30-≤60 msec,SAD 100 mg,0 N (%)
same,Maximum change from baseline in QTcF interval >60 msec,SAD 100 mg,0 N (%)
same,Maximum change from baseline in QTcF interval ≤30 msec,SAD 100 mg,6 (100) N (%)
same,Maximum change from baseline in QTcF interval >30-≤60 msec,SAD 300 mg,0 N (%)
same,Maximum change from baseline in QTcF interval >60 msec,SAD 300 mg,0 N (%)
same,Maximum change from baseline in QTcF interval ≤30 msec,SAD 300 mg,6 (100) N (%)
same,Maximum change from baseline in QTcF interval >30-≤60 msec,SAD 900 mg,0 N (%)
same,Maximum change from baseline in QTcF interval >60 msec,SAD 900 mg,0 N (%)
same,Maximum change from baseline in QTcF interval ≤30 msec,SAD 900 mg,6 (100) N (%)
same,Increase from baseline in maximum post-dose QTcF,SAD and MAD,No participants showed greater than 30 ms increase from baseline
